Results taken from ChEMBL document CHEMBL1857833, “Screening and optimization of specific chemical series against human African Trypanosomiasis (HAT)”.
Converted amounts (≈) assume the structure as drawn. “And” between values parts separate entries of the source, which are not always exact repeats. Equal entries are not always repeated.

Tests used:
[1] = DNDI: half life in mouse liver microsomes at a concentration of 10uM; type: ADME, Microsome
Trypanosoma brucei [2] = assay: DNDI: Inhibition of Human African Trypanosomiasis, SBRI 427, in vitro; type: functional, organism-based
in vitro = details: mouse, liver microsomes, t (1 / 2)
Description: DNDI: half life in mouse liver microsomes at a concentration of 1uM

[3] = DNDI: Cytotoxicity against L929 mouse fibroblasts, 72 hour.; type: toxicity, cell-based; details: mouse, L929 mouse fibroblasts
[4] = DNDI: in vitro intrinsic clearance in mouse liver microsomes at a concentration of 10uM; type: ADME, Microsome; details: read-out: CLint in vitro
[5] = DNDI: Lipophilicity measured in Chromatographic hydrophobicity index (CHI) assay, pH 7.4; type: physicochemical; details: buffer
[6] = DNDI: Solubility in phosphate buffered saline at pH7.4 measured by optical density (turbidimetry) at room temperature (OD-RT); type: physicochemical; details: pH 7.4
Trypanosoma brucei [7] = assay: DNDI: Inhibition of Human African Trypanosomiasis, Cross 22, in vitro; type: functional, organism-based
[8] = (§1) DNDI: Cytotoxicity against L929 mouse fibroblasts, CYTO-SP, 24 hour; type: toxicity, cell-based; details: mouse, L929 mouse fibroblasts
L929 = assay: as §1; type: toxicity, cell-based; details: l929
[9] = DNDI: in vitro intrinsic clearance in human liver microsomes at a concentration of 10uM; type: ADME, Microsome
[10] = mouse, microsomes, 1 µM
Description: DNDI: in vitro intrinsic clearance in mouse liver microsomes at a concentration of 1uM

Trypanosoma brucei [11] = assay: DNDI: Inhibition of Human African Trypanosomiasis, EATRO 110, in vitro; type: functional, organism-based
[12] = DNDI: half life in human liver microsomes at a concentration of 10uM; type: ADME, Microsome
MDR1 (ABCB1) [13] = target: T1, MDR1 (ABCB1) (Homo sapiens, UniProt P08183); assay: DNDI: % of compound recovered from basolateral to apical permeability assay in MDCK cells transfected with human MDR1; type: ADME, cell-based, Canis lupus familiaris; details: dog
T1 sequence (P08183 whole entry): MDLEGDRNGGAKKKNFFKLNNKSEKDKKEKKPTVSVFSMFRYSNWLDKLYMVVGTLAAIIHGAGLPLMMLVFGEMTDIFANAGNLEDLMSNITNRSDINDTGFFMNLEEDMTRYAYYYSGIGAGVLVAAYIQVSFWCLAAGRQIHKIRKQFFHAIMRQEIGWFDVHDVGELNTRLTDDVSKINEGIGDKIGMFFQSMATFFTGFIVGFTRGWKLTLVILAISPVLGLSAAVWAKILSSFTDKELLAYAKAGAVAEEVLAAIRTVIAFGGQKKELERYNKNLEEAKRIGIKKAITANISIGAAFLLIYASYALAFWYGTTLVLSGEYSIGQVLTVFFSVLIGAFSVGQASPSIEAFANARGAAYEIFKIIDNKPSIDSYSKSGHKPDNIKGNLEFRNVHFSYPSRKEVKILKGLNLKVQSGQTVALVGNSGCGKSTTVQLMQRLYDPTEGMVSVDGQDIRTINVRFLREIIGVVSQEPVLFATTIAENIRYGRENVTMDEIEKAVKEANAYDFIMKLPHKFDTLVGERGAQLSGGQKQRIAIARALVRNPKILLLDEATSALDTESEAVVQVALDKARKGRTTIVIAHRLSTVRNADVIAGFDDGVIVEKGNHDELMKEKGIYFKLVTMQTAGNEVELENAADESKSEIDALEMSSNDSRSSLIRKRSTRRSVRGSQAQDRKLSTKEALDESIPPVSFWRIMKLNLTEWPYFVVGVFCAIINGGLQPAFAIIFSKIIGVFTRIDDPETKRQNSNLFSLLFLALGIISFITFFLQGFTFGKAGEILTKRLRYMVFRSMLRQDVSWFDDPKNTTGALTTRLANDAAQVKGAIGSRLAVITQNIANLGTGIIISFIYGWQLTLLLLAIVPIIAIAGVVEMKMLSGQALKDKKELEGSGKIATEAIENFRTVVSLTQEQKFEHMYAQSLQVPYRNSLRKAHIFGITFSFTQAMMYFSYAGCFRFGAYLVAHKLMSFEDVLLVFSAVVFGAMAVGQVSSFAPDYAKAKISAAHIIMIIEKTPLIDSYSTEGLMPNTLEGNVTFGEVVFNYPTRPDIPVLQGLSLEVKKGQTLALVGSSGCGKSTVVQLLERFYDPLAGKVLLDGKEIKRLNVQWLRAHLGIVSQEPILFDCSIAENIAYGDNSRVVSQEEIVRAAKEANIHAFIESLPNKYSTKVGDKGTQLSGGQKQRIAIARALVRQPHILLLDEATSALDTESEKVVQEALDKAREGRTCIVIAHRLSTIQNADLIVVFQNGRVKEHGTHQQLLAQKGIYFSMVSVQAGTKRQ

MDR1 (ABCB1) [14] = target: T1, MDR1 (ABCB1); assay: DNDI: Efflux ratio for permeability from basolateral to apical side to apical to basolateral side of MDCK cells transfected with human MDR1; type: ADME, cell-based, Canis lupus familiaris; details: dog, read-out: B-A/A-B
MDR1 (ABCB1) [15] = target: T1, MDR1 (ABCB1); assay: DNDI: Apparent permeability from apical to basolateral side of the MDCK cell transfected with human MDR1; type: ADME, cell-based, Canis lupus familiaris; details: dog
MDR1 (ABCB1) [16] = target: T1, MDR1 (ABCB1); assay: DNDI: % of compound recovered from apical to basolateral permeability assay in MDCK cells transfected with human MDR1; type: ADME, cell-based, Canis lupus familiaris; details: dog
MDR1 (ABCB1) [17] = target: T1, MDR1 (ABCB1); assay: DNDI: Apparent permeability from basolateral to apical side of the MDCK cell transfected with human MDR1 after 60 mins at a concentration of 3uM; type: ADME, cell-based, Canis lupus familiaris; details: dog
Trypanosoma brucei [18] = assay: DNDI: Mean survival time in days (MSD) of mice after intraperitoneal injection of Human African Trypanosomiasis (HAT), STIB 795, in vivo at 50 mg/kg/day for 4 days.; type: functional, Mus musculus
Trypanosoma brucei [19] = assay: DNDI: Mean survival time in days (MSD) of mice after p.o. administration of Human African Trypanosomiasis (HAT), STIB 795, in vivo at 100 mg/kg/day for 4 days.; type: functional, Mus musculus; details: route oral
[20] = DNDI: Solubility in phosphate buffered saline at pH7.4 measured by nephelometry at room temperature (NEPH-RT); type: physicochemical; details: pH 7.4
[21] = DNDI: half-life in mouse S9 microsomes at a concentration of 1uM; type: ADME, subcellular, Liver, S9 fraction
[22] = DNDI: half-life in mouse S9 microsomes at a concentration of 10uM; type: ADME, subcellular, Liver, S9 fraction
Leishmania donovani = assay: DNDI: Inhibition of formation of Leishmania donovani (strain MHOM/ET/67/L82) axenic amastigotes, in vitro.; type: functional, organism-based
Trypanosoma cruzi = assay: DNDI: Inhibition of Chagas Disease parasite Trypanosoma cruzi (Tulahuen LacZ, Clone C4), in vitro.; type: functional, organism-based
Plasmodium falciparum = assay: DNDI: Inhibition of the malaria parasite Plasmodium falciparum, in vitro; type: functional, organism-based; details: K1
[23] = DNDI: Cytotoxicity against L-6 rat myoblasts from skeletal muscle cells; type: toxicity, cell-based, L6; details: L-6 rat skeletal muscle myoblasts
[24] = test system: Trypanosoma brucei rhodesiense; assay: DNDI: Inhibition of Human African Trypanosomiasis (HAT), STIB 900, in vitro; type: functional, organism-based
[25] = Trypanosoma brucei, SBRI 427, read-out: IC50

Structure (SMILES) | half-life at 10 µM [1] | half-life at 1 µM (in vitro) | microsomal CLint at 10 µM [4] | chromatographic logD [5] | solubility kinetic [6] | IC50 (Trypanosoma brucei [7]) | CLint in vitro [10] | IC50 (Trypanosoma brucei [11]) | IC50 (Trypanosoma brucei [2]; [25]) | solubility kinetic [20] | half-life at 1 µM [21] | half-life at 10 µM [22] | IC50 at 72 h [3] | IC50 at 24 h [8] | other results
CCCCCC(C)NCc1coc(-c2ccccc2OCC)n1 (stereo not given) | – | – | – | – | – | – | – | – | – | – | – | – | 7.79 µg/mL (≈ 24.6 µM) | 27 µg/mL (≈ 85.3 µM) | IC50 (L929): 38.6 µg/mL (≈ 122 µM)
CCOc1ccc(-c2nc(CNC[C@@H]3CC[C@H]4C[C@@H]3C4(C)C)co2)cc1 | 1.35 h | 0.167 h | 35 µL/min/mg | 5.5 | 0.8 µM (≈ 0.284 µg/mL) | 1.57 µg/mL (≈ 4.43 µM) | 86 µL/min/mg | 0.71 µg/mL (≈ 2 µM) | 1.18 µg/mL (≈ 3.33 µM) | – | – | – | 3.26 µg/mL (≈ 9.2 µM) | 45.2 µg/mL (≈ 128 µM) | IC50 (Trypanosoma brucei [2]): 1.47 µg/mL and 1.38 µg/mL; recovery (MDR1 (ABCB1) [13]): 42%; efflux ratio (MDR1 (ABCB1) [14]): 0.8; Papp A→B (MDR1 (ABCB1) [15]): 8.16 ×10⁻⁶ cm/s; recovery (MDR1 (ABCB1) [16]): 21%; Papp B→A at 1 h, 3 µM (MDR1 (ABCB1) [17]): 6.74 ×10⁻⁶ cm/s
CCCCc1ccc(-c2nc(CNCCCN(C)C)co2)cc1 | – | 1.6 h | – | 5.07 | – | – | 9 µL/min/mg | – | 0.07 µg/mL (≈ 0.222 µM) | < 1 µM | – | – | 1.4 µg/mL (≈ 4.44 µM) | – | MSD (Trypanosoma brucei [18]): 7 days; MSD (Trypanosoma brucei [19]): 7 days
Fc1ccc(-c2cc3nc(-c4ccccc4)cc(NC4CCNC4)n3n2)cc1 (stereo not given) | – | – | – | – | – | – | – | – | 0.583 µg/mL (≈ 1.56 µM) | – | 1.39 h | 2.82 h | 1.39 µg/mL (≈ 3.72 µM) | – | –

Continued, in another order:

half-life at 10 µM [1] | half-life at 1 µM (in vitro) | microsomal CLint at 10 µM [4] | chromatographic logD [5] | solubility kinetic [6] | IC50 (Trypanosoma brucei [7]) | CLint in vitro [10] | IC50 (Trypanosoma brucei [11]) | IC50 (Trypanosoma brucei [2]; [25]) | solubility kinetic [20] | half-life at 1 µM [21] | half-life at 10 µM [22] | Structure (SMILES) | IC50 at 72 h [3] | IC50 at 24 h [8] | other results
0.4 h | 0.0667 h | 121 µL/min/mg | 5.22 | 6.3 µM (≈ 2.23 µg/mL) | 1.72 µg/mL (≈ 4.85 µM) | 207 µL/min/mg | 1.16 µg/mL (≈ 3.27 µM) | – | – | – | – | CCOc1ccc(-c2nc(CNC3C[C@@H]4C[C@H]([C@H]3C)C4(C)C)co2)cc1 (stereo not given in full) | 3.51 µg/mL (≈ 9.9 µM) | > 50 µg/mL | IC50 (Trypanosoma brucei [2]): 1.07 ug/ml [middle of 5 runs]; IC50 (L929): 28.6 µg/mL (≈ 80.7 µM); CLint in vitro [9]: 17 µL/min/mg; half-life at 10 µM [12]: 2.9 h
– | – | – | 4.98 | – | – | – | – | 0.422 µg/mL (≈ 1.13 µM) | 3 µM (≈ 1.12 µg/mL) | 1.28 h | 3.68 h | Fc1ccc(-c2cc3nc(-c4ccccc4)cc(N4CCNCC4)n3n2)cc1 | 0.73 µg/mL (≈ 1.95 µM) | – | –
– | – | – | 4.2 | – | – | – | – | 0.555 µg/mL (≈ 1.43 µM) | 13 µM (≈ 5.04 µg/mL) | > 5.83 h | > 5.83 h | Fc1ccc(-c2cc3nc(-c4ccccc4)cc(NC4CCNCC4)n3n2)cc1 | 1.11 µg/mL (≈ 2.86 µM) | – | –
14.7 h | 0.383 h | 3 µL/min/mg | 4.95 | 32 µM (≈ 10.1 µg/mL) | 0.67 µg/mL (≈ 2.12 µM) | 36 µL/min/mg | 0.8 µg/mL (≈ 2.53 µM) | – | – | – | – | CCCCCC(C)NCc1coc(-c2ccc(OCC)cc2)n1 (stereo not given) | 5.27 µg/mL (≈ 16.7 µM) | > 50 µg/mL | IC50 (Leishmania donovani): 12.3 µg/mL (≈ 38.8 µM); recovery (MDR1 (ABCB1) [13]): 56%; efflux ratio (MDR1 (ABCB1) [14]): 1; IC50 (Trypanosoma cruzi): 7.7 µg/mL (≈ 24.3 µM); IC50 (Plasmodium falciparum): 1.38 µg/mL (≈ 4.36 µM); Papp A→B (MDR1 (ABCB1) [15]): 20.9 ×10⁻⁶ cm/s; CLint in vitro [9]: 33 µL/min/mg; recovery (MDR1 (ABCB1) [16]): 33%; IC50 [23]: 8.28 µg/mL (≈ 26.2 µM); Papp B→A at 1 h, 3 µM (MDR1 (ABCB1) [17]): 22 ×10⁻⁶ cm/s; half-life at 10 µM [12]: 1.47 h; IC50 [24]: 0.342 µg/mL (≈ 1.08 µM)
